{"source": "patent US8557308B2", "about": "“Andrographis paniculata extract” (Nutrition Science Partners Limited, priority 2007, dated 2013)", "test_system": "mildly to moderately active ulcerative colitis", "experiment": "Randomized, double-dummy, active controlled 8-week clinical trial in ulcerative colitis", "assay_type": "in vivo, human", "settings": "week 8", "protocol": "120 patients with colonoscopy-confirmed mildly to moderately active ulcerative colitis were assigned to two groups (60 patients/group). […] All other medications were excluded. The therapeutic effects were assessed biweekly using a scale similar to the partial Mayo Scoring System, and the clinical symptom score reduction (≧50% reduction in symptoms) was calculated. Scores were then retrospectively calculated using the standard partial Mayo scores (PMS), clinical response (improvement ≧2 points or final score of 0) and remission (≦1 PMS score at week 8). Colonoscopies at the beginning and at the end of treatment were rated with a modified Baron score, and biopsies taken during colonoscopy were graded histologically with a scale of 0-3."}
{"smiles": "Nc1ccc(O)c(C(=O)O)c1", "note": "[Etiasa, 5-amino-2-hydroxybenzoic acid]", "values": [{"measurement": "patients with Baron scores reduced by at least two grades", "setting": "colonoscopy", "result": 42, "unit": "%"}, {"measurement": "clinical response rate (partial Mayo score improvement ≧2 points or final score of 0)", "result": 58, "unit": "%"}]}
